Laboratory results published in patent publication US4973668A, “Variants of alpha 1-antitrypsin which are useful, in particular, as kallikrein inhibitors” (Transgene S.A., priority 1986, dated 1990).
Entries after “also recorded” stand apart in the source; their conditions may differ.

How the values were obtained:
[1] = system: human neutrophil elastase; test: inhibition of human neutrophil elastase by E. coli extracts; type: biochemical; settings: clarified sonicated E. coli extracts; FIG. 1; compared with normal (Met358)alpha1-AT
Procedure: Clarified sonicated extracts were prepared from induced cultures of E. coli TGE900 containing one of the above three plasmids.
Aliquots of extracts are tested for their capacity to inhibit human neutrophil elastase (this technique having already been described).

[2] = system: human thrombin; test: thrombin inhibition curves; type: biochemical; settings: FIG. 3; comparison with alpha1-AT(Arg358)
[3] = system: human plasma kallikrein; test: antikallikrein activity, residual hydrolysis of chromozyme PK at 410 nm; type: biochemical
Procedure: The antikallikrein activity is assessed by measuring at 410 nm the residual extent of hydrolysis of chromosyme PK (benzoyl-Pro-Pre-Arg-4-nitroanilide acetate, Boehringer Mannheim).
2.6 pmol of human plasma kallikrein are preincubated at 37° C. with an increasing amount of inhibitor in 0.1 M Na phosphate/0.15 M NaCl buffer. After 30 minutes, the reaction is stopped by adding […] of substrate (final concentration 0.5 mM) and the residual enzyme activity is determined.

[4] = system: kallikrein; settings: ratio versus C1 inhibitor; cited from earlier work
[5] = system: human thrombin; settings: general statement on the earlier variant; cited from earlier work
[6] = system: factor XIIF; settings: ratio versus C1 inhibitor; cited from earlier work

Row | Substance | inhibition of neutrophil elastase [1] | inhibition of thrombin [2] | inhibition of kallikrein ([3]; 2.6 pmol kallikrein, 37° C., 30 minutes preincubation, FIG. 2) | inhibition of kallikrein ([3]; 2.6 pmol kallikrein, 37° C., 30 minutes preincubation; FIG. 2; Arg^358) alpha1 -AT) | activity in inactivation of kallikrein relative to C1 inhibitor [4] | antithrombin activity [5] | activity in inactivation of factor XIIF relative to C1 inhibitor [6]
1 | (Ala^357, Arg^358)alpha1 -AT: variant of human alpha1-antitrypsin, Pro357 replaced by Ala and Met358 by Arg, expressed in E. coli from plasmid pTG1946 | incapable of inhibiting | very weak; also recorded: only very weakly | very much improved | capable of rapidly inhibiting |  |  | 
2 | (Arg^358)alpha1 -AT: human alpha1-antitrypsin variant with Met358 replaced by arginine, described in WO 86/00,337; plasmid pTG1900 |  |  |  |  | 4.1 times | very substantial | 11.5 times
